Data: patent US9133117B2, “Triple reuptake inhibitors and methods of their use” (SUNOVION PHARMACEUTICALS INC., priority 2008, dated 2015)
“Also recorded” adds a separate entry of the source.

Columns and labels:
[1] = Brain and plasma levels following oral administration; format: in vivo; settings: 10 mg/kg
[2] = test system: formalin-induced flinching behavior; test: Formalin pain model (flinching behavior); format: in vivo, rat; settings: 60 min before formalin
Procedure: Effects of (3aR,6aS)-3a-(3,4-Dichlorophenyl)octahydrocyclopenta[c]pyrrole on acute and persistent inflammatory pain were evaluated in male rats. Pain was induced experimentally by application of a chemical irritant, formalin, which results in a biphasic behavioral response that includes both early (Phase 1, 0-9 minutes) and late (Phase 2, 10-60 minutes) phase flinching behavior. The early phase response is considered to be the result of C-fiber activation while the late phase appears to be dependent on the combination of an inflammatory response in the tissue and functional changes in the dorsal horn of the spinal cord.
Male rats (Sprague-Dawley, 272-315 g, Harlan) were housed 4 animals per cage in a temperature-controlled environment on a 12-hour light-dark cycle with food and water available ad libitum. Animals were allowed to acclimate to the facility for at least 5 days before testing. On the day of the study, a flexible, light-weight, ‘C’-shaped metal band was applied to one hind paw and the rat was dosed orally (PO, 3 mL/kg, via gavage) or intraperitoneally (IP, 1 mL/kg) with vehicle (50 mM acetate buffer (pH 4.5)), (3aR,6aS)-3a-(3,4-dichlorophenyl)octahydrocyclopenta[c]pyrrole or gabapentin. […] Formalin-induced flinching behavior was recorded for 60 minutes.

CN1C[C@H]2CCCC[C@@]2(c2ccc(Cl)c(Cl)c2)C1 [(3aR,7aS)-3a-(3,4-Dichlorophenyl)-2-methyloctahydro-1H-isoindole]
levels of tested compounds in brain (order of lines in FIG. 1) [1]: top line | ratio of brain and plasma levels (order of lines in FIG. 2) [1]: second line

CN1C[C@@H]2CCCC[C@]2(c2ccc(Cl)c(Cl)c2)C1 [(3aS,7aR)-3a-(3,4-Dichlorophenyl)-2-methyloctahydro-1H-isoindole]
levels of tested compounds in brain (order of lines in FIG. 1) [1]: second line | ratio of brain and plasma levels (order of lines in FIG. 2) [1]: top line

NCC1(CC(=O)O)CCCCC1 [Gabapentin, reference compound]
effect on formalin-induced flinching behavior (positive control) ([2]; male rats, 100 mg/kg IP): significant and selective attenuation of phase II formalin-induced flinching behavior

Clc1ccc([C@@]23CCC[C@@H]2CNC3)cc1Cl [(3aR,6aS)-3a-(3,4-Dichlorophenyl)octahydrocyclopenta[c]pyrrole]
effect on formalin-induced flinching behavior ([2]; male rats, 3, 10 and 30 mg/kg PO, phase I 0-9 min, phase II 10-60 min): significant, dose-related decrease in flinching behavior during phases I and II; also recorded: significantly and dose-dependently attenuated formalin-induced flinching behavior in a non-selective manner

CN1C[C@H]2CCC[C@@]2(c2ccc(Cl)c(Cl)c2)C1 [(3aR,6aS)-3a-(3,4-dichlorophenyl)-2-methyloctahydrocyclopenta[c]pyrrole]
levels of tested compounds in brain (order of lines in FIG. 1) [1]: fourth line | ratio of brain and plasma levels (order of lines in FIG. 2) [1]: fourth line

CN1C[C@@H]2CCC[C@]2(c2ccc(Cl)c(Cl)c2)C1 [(3aS,6aR)-3a-(3,4-dichlorophenyl)-2-methyloctahydrocyclopenta[c]pyrrole]
levels of tested compounds in brain (order of lines in FIG. 1) [1]: third line | ratio of brain and plasma levels (order of lines in FIG. 2) [1]: third line
